The subject of assay [1] is gp120 hydrolysis by salivary IgA and serum IgA. It is filed as biochemical, human.
Assay [2] addresses gp120 of HIV-1 strain SF162 (HIV-1, strain SF162).
In assay [3] the target is gp120 of HIV-1 strain ZA009 (HIV-1, strain ZA009).
The target in assay [4] is gp120 of HIV-1 strain BR004 (HIV-1, strain BR004).

For `c1cnc2c(c1)ccc1cccnc12` [1,10 phenanthroline], in assay [1], the “inhibition of gp120 hydrolysis by serum and salivary IgA” value (from here on “inhibition of gp120 hydrolysis”) is listed as “did not detectably inhibit”.

For pepstatin A, in assay [1], the “inhibition of gp120 hydrolysis” value is “did not detectably inhibit”.

Turning to `O=C(O)CN(CCN(CC(=O)O)CC(=O)O)CC(=O)O` [EDTA], the “inhibition of gp120 hydrolysis” value in assay [1] is “did not detectably inhibit”.

MAb b12 (antibody): the IC80, HIV neutralization (% decrease of p24; PHA-stimulated PBMC hosts) is 14.1 µg/mL in assay [2], over 20 µg/mL in assay [3] and over 20 µg/mL in assay [4].

With `NC(=O)CI` [iodoacetamide], the “inhibition of gp120 hydrolysis” value in assay [1] was “did not detectably inhibit”.

The values above are taken from patent US20090117115A1 (priority 2006, published 2009).
